Data on 1 compound can be found in publication PMC3997483, “Aminostyrylbenzofuran Directly Reduces Oligomeric Amyloid-β and Reverses Cognitive Deficits in Alzheimer Transgenic Mice” (PLoS ONE, 2014).

≈ marks a conversion by molar mass, not a printed value. Like-named read-outs stand apart in the source and are kept apart here.

Data set [1] in a line: Pharmacokinetics IV/PO in rats. The data set is classed as in vivo, SD rats. The conditions noted are these: for AUC(0-t): read-out: AUC0–24h. On the procedure:
Pharmacokinetics profile of KMS88009 was obtained using ICR mice, SD rats, beagle dogs and cynomolgus monkeys. Animals were fasted overnight before KMS88009 administration. Mice were divided into 2 groups to receive KMS88009 as a single dose of 2.1 mg/kg intravenous (IV) bolus or 10 mg/kg orally (PO) by gavage. Additionally, KMS88009 was administered orally to estimate the BBB penetration in mice (10, 30 and 100 mg/kg). […] Dog received KMS88009 either as an IV bolus (1 mg/kg) via the great saphenous vein or by oral gavage (4 mg/kg). KMS88009 was administrated to monkeys as an IV bolus (1 mg/kg) via the femoral vein or by oral gavage (4 mg/kg). Vehicle for IV and PO administration was DMSO/tween-20/saline (3.3∶19.8∶[…]). […]. Brain samples were weighed and Daunce-homogenized in 10-fold volume of ice-chilled 4% bovine serum albumin (BSA) solution at room temperature. Plasma and brain homogenates were kept frozen at −70°C until analysis. The levels of KMS88009 were determined by the LC-MS/MS analysis. Pharmacokinetic parameters, time to the maximum concentration (Tmax), maximum concentration (Cmax), elimination half-life (T1/2), volume of distribution (Vd), clearance (Cl) and mean residual time (MRT), of KMS88009 were calculated based on plasma concentration-time data by a non-compartmental method using WinNonlin Version 5.2 (Pharsight, USA). Area under the curve from 0 to 24 hr (AUC0-24h) and area under the curve from 0 to infinity (AUCINF) were obtained by linear and log linear trapezoidal summations.

A short description of another data set: Solubility studies. In kind it is physicochemical. The protocol:
Solubility studies Solubility of KMS88009 in distilled water (DW), simulated gastric fluid (SGF, pH 1.2), simulated intestinal fluid (SIF, pH 6.8) and DMSO/tween-20/saline was determined. Excess amounts of KMS88009 were placed in screw-capped vials containing 2 mL of DW, SGF, SIF and DMSO/tween-20/saline. Suspensions were vortexed for 2 min and kept in a shaking water-bath at 37 °C. We transferred 250 μL of each sample to the filter insert of centrifuge tubes. After centrifugation at 16,000 rpm for 15 min, the filtrates of DW, SGF and SIF were analyzed by HPLC (Agilent 1200 series, USA). Values are expressed as the mean ± SD of 2 independent experiments.

For the next data set, the target named is T1, CYP2D6 (Homo sapiens, UniProt P10635).
T1 construct: five CYP isozymes (CYP3A4, 1A2, 2C9, 2C19, and 2D6) from human LM; from tissue; host or cells: human liver microsomes
Put plainly: CYP inhibition assay (Crespi, fluorescent probe). In kind it is in vitro ADME. The protocol:
(§1) Cytochrome P450 (CYP) inhibition assay was carried out according to the principle of the Crespi assay. Fluorescent probe substrates (BD Gentest, USA) used for each CYP isozyme were: 3-cyano-7-ethoxycoumarin for CYP1A2 and CYP2C19, 7-benzyloxy-trifluoromethylcoumarin for CYP3A4, 7-methoxy-4-trifluoromethylcoumarin for CYP2C9 and 3-[2-(N,N-diethyl-N-methylamino)ethyl]-7-methoxy-4-methyl-coumarin for CYP2D6. […] All reactions were stopped by addition of 75 µL of 0.1 M tris in acetonitrile and analyzed by an LC-MS/MS product ion monitoring method on Agilent 1200 HPLC (Agilent, USA) and API-5000 mass spectrometer (Canada). IC50 value was calculated using SigmaPlot 10.0 (Systat Software Inc., USA).

A further data set deals with T2, CYP3A4 (Homo sapiens, UniProt P08684).
T2 construct: five CYP isozymes (CYP3A4, 1A2, 2C9, 2C19, and 2D6) from human LM; from tissue; host or cells: human liver microsomes
Kind of data set: CYP inhibition assay (Crespi, fluorescent probe). In kind it is in vitro ADME. On the procedure: as §1

The next data set deals with T3, CYP1A2 (Homo sapiens, UniProt P05177).
T3 construct: five CYP isozymes (CYP3A4, 1A2, 2C9, 2C19, and 2D6) from human LM; from tissue; host or cells: human liver microsomes
T3 sequence (P05177 1-516): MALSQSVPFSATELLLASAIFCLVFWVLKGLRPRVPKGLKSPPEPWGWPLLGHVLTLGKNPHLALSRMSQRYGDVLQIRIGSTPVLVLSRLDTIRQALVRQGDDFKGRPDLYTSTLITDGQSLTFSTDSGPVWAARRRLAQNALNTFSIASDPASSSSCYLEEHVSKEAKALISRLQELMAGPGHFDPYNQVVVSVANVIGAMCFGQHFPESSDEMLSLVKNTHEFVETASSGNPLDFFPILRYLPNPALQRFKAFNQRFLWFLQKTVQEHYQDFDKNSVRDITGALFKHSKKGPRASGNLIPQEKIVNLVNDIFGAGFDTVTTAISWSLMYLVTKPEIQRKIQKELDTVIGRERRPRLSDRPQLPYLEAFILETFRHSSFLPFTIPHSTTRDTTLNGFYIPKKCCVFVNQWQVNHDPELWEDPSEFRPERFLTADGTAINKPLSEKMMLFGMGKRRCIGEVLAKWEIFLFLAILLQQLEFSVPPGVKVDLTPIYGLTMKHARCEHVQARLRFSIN
Put plainly: CYP inhibition assay (Crespi, fluorescent probe). In kind it is in vitro ADME. The protocol: as §1

A further data set addresses T4, CYP2C19 (Homo sapiens, UniProt P33261).
T4 construct: five CYP isozymes (CYP3A4, 1A2, 2C9, 2C19, and 2D6) from human LM; from tissue; host or cells: human liver microsomes
Put plainly: CYP inhibition assay (Crespi, fluorescent probe). The data set is classed as in vitro ADME. On the procedure: as §1

The target of another data set is T5, CYP2C9 (Homo sapiens, UniProt P11712).
T5 construct: five CYP isozymes (CYP3A4, 1A2, 2C9, 2C19, and 2D6) from human LM; from tissue; host or cells: human liver microsomes
Put plainly: CYP inhibition assay (Crespi, fluorescent probe). In kind it is in vitro ADME. The protocol: as §1

Another data set is described as follows: in vitro. Conditions: monkey, liver microsomes. (Liver microsomes are vesicles of endoplasmic reticulum, rich in cytochrome P450 enzymes.)

T1 sequence (P10635 whole entry): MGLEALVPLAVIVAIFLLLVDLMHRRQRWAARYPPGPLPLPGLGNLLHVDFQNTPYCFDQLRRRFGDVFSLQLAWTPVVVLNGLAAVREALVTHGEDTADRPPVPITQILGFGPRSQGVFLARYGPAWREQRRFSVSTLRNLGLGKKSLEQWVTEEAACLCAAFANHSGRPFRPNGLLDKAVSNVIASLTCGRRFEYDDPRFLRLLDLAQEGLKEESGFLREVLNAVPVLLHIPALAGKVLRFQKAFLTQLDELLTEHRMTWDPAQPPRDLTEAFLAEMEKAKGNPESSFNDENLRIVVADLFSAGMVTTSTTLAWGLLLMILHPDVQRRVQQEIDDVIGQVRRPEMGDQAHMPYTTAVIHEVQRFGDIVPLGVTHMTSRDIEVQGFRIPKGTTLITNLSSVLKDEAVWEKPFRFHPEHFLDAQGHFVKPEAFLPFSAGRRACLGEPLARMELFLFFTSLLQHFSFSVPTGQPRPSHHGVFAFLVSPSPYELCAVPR
T5 sequence (P11712 whole entry): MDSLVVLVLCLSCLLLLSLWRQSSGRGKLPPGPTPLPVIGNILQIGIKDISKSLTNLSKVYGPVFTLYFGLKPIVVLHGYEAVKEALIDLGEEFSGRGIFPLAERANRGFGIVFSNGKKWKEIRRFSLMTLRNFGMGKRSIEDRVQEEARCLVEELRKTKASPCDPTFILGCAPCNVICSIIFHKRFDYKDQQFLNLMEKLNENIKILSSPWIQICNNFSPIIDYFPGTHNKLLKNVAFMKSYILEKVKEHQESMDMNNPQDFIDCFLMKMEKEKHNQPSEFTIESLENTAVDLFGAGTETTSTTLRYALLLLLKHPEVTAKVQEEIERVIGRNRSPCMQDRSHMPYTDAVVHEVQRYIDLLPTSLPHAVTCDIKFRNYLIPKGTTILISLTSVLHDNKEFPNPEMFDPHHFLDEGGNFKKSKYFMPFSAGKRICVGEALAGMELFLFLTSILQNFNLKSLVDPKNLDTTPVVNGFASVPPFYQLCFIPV
T2 sequence (P08684 whole entry): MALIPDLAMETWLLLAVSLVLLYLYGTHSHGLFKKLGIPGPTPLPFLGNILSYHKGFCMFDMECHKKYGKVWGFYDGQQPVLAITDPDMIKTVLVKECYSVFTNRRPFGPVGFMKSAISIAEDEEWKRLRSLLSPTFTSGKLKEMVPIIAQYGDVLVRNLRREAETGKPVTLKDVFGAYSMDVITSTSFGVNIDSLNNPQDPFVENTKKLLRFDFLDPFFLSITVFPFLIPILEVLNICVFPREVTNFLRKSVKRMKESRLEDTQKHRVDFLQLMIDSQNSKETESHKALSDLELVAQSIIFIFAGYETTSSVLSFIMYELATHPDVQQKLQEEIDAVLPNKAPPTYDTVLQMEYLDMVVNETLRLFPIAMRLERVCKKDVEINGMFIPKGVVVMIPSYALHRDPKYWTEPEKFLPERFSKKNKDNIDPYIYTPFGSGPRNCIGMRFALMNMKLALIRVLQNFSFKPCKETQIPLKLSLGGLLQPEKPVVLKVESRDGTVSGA
T4 sequence (P33261 whole entry): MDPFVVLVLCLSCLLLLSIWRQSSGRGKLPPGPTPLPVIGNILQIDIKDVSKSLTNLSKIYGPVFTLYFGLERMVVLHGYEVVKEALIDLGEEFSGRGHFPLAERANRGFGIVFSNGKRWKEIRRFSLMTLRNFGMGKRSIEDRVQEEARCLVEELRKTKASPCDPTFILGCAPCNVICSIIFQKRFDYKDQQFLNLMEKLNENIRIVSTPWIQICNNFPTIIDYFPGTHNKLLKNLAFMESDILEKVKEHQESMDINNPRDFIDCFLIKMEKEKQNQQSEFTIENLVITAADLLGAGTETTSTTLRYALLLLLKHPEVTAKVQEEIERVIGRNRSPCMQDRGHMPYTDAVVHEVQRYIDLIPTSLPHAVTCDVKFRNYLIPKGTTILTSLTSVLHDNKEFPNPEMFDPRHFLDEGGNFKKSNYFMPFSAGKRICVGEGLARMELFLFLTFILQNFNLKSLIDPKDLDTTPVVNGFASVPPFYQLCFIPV

One may read the MRT last as the average time that molecules of a dose stay in the body. The half-life is the time needed for the level to fall by half in the phase considered. Read a high half-life as slow loss. The AUC(0-inf) is total exposure, with the tail of the curve extrapolated. Low readings indicate low exposure, high ones high exposure. One may read the IC50 as the concentration needed to halve the response being measured. As usually defined, the fraction remaining is the share of the starting amount still present when the sample was taken. Read a high fraction remaining as less turnover. On to `COc1ccc2cc(C=Cc3ccc(N(C)C)cc3)oc2c1` [KMS88009, 6-methoxy-2-(4-dimethylaminostyryl) benzofuran], for which the MRT last in data set [1] (SD, plasma, rat IV 1.25 mg/kg) came to 1.8 h; in data set [1] (SD, plasma, rat PO 2.5 mg/kg), 4 h. For the same compound, in data set [1] (SD, plasma, rat IV 1.25 mg/kg), the Vd amounted to 8 L/kg. The same compound showed a clearance in data set [1] (SD, plasma, rat IV 1.25 mg/kg) of 13.3 mL/min/kg. In addition, the half-life was 432 min in data set [1] (SD, plasma, rat IV 1.25 mg/kg) and 240 min in data set [1] (SD, plasma, rat PO 2.5 mg/kg). The total exposure AUC(0-inf) in data set [1] (SD, rat IV 1.25 mg/kg, plasma) is 1670 ng·h/mL; in data set [1] (SD, rat PO 2.5 mg/kg, plasma), 929 ng·h/mL. Moreover, the AUC(0-t) in data set [1] (SD, rat IV 1.25 mg/kg, plasma) was 1640 ng·h/mL; in data set [1] (SD, rat PO 2.5 mg/kg, plasma), 908 ng·h/mL. In data set [1] (rat PO […] vs IV 1.25 mg/kg), this compound yielded a BA of 27.8%. The solubility is 583 µg/mL (≈ 1990 µM) in “Solubility studies” (DMSO/tween-20/saline, read-out: Solubility); 0.000 mg/kg in “Solubility studies” (DW (distilled water), 37 °C); 0.000 mg/kg in the data set “Solubility studies” (SIF, pH 6.8, 37 °C); 4 µg/mL (≈ 13.6 µM) in the data set “Solubility studies” (simulated gastric fluid (SGF), SGF, pH 1.2, 37 °C, read-out: Solubility). In addition, the IC50 at CYP2D6 was greater than 50 µM; against CYP3A4, 9.84 ± 0.15 µM; on CYP1A2, 740 ± 120 nM; against CYP2C19, 2510 ± 210 nM; against CYP2C9, 22.4 ± 1.25 µM. In addition, the half-life at 5 µM in the data set “in vitro” was 35.2 ± 0.6 min. This compound also registered a fraction remaining at 1 h, 5 µM in the data set “in vitro” of 30.9 ± 0.2%.
